From US9365522B2, “Pyrazole amide derivative” (AMGEN INC., priority 2015, dated 2016) come the findings set out here.

The target in the test is T1, ligand binding domain of human ROR gamma (Homo sapiens, UniProt P51449).
T1 construct: NM_001001523; expressed in transfected cells; host or cells: HEK293T
T1 sequence (P51449 247-497 isoform P51449-2): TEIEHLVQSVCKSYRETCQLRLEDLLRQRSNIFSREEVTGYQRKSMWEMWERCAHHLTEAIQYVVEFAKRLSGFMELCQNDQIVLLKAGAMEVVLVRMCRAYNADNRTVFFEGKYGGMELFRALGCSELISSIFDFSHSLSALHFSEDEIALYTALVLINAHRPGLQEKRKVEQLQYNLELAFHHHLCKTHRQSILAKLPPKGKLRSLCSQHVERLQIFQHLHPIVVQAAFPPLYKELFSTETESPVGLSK
Nature of the test: ROR gamma reporter gene assay (GAL4-RORγ LBD luciferase, Dual-Glo). The format is cell-based. Particulars: HEK293T cells transfected with pM-ROR gamma, 8 concentrations 3.5 nM to 10.5 μM, 24 h incubation; read-out: result (pIC50, inhibition of RORγ transcriptional activity) (converted). The method, boiled down:
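Transient GAL4-RORγ LBD (aa 247-497) / 5×UAS-luc / pRL-CMV cotransfection in HEK293T, charcoal-stripped 10% FBS. 8-pt dose, 3.5 nM–10.5 μM, 0.075% DMSO final. 24 h, 37 °C, 5% CO2. Dual-Glo firefly/renilla readout; pIC50 from curve fit.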
Take `Cc1cc(Cl)c(C(=O)CN(Cc2cc(F)cc(F)c2)C(=O)c2cnn([C@H]3CC[C@H](C(=O)O)CC3)c2C(F)(F)F)c(C#N)c1` [Example 307, trans-4-(4-((2-(2-chloro-6-cyano-4-methylphenyl)-2-oxoethyl)-((3,5-difluorophenyl)methyl)carbamoyl)-5-(trifluoromethyl)pyrazol-1-yl)cyclohexane-1-carboxylic acid]: the IC50 is 8.32e+06 pM.
Then `CCC(C)(C)CN(CC(=O)c1c(Cl)cc(Cl)cc1Cl)C(=O)c1cnn(C23CCC(C(=O)O)(CC2)CC3)c1C(F)(F)F` [Example 308, 4-(4-(2,2-dimethylbutyl-(2-oxo-2-(2,4,6-trichlorophenyl)ethyl)carbamoyl)-5-(trifluoromethyl)pyrazol-1-yl)bicyclo[2.2.2]octane-1-carboxylic acid], with 16600 pM; and `CCC(C)(C)CN(CC(=O)c1c(Cl)cc(F)cc1Cl)C(=O)c1cnn(C23CCC(C(=O)O)(CC2)CC3)c1C(F)(F)F` [Example 309, 4-(4-((2-(2,6-dichloro-4-fluorophenyl)-2-oxoethyl)-(2,2 dimethylbutyl)carbarnoyl)-5-(trifluoromethyl)pyrazol-1-yl)bicyclo [2.2.2] octane-1-carboxylic acid], with 11200 pM.
On to `CC(C)(C)CN(CC(=O)c1c(Cl)cncc1Cl)C(=O)c1cnn([C@H]2CC[C@](C)(C(=O)O)CC2)c1C#N` [Example 310, trans-4-(5-cyano-4-((2-(3,5-dichloropyridin-4-yl)-2-oxoethyl)-(2,2-dimethylpropyl)carbamoyl)pyrazol-1-yl)-1-methylcyclohexane-1-carboxylic acid], for which the IC50 was > 1.05e+07 pM.
Turning to `CN1C(C)(C)CC(N(CC(=O)c2c(Cl)cncc2Cl)C(=O)c2cnn([C@H]3CC[C@](C)(C(=O)O)CC3)c2C(F)(F)F)CC1(C)C` [Example 311, trans-4-(4-((2-(3,5-dichloropyridin-4-yl)-2-oxoethyl)-(1,2,2,6,6-pentamethylpiperidin-4-yl)carbamoyl)-5-(trifluoromethyl)pyrazol-1-yl)-1-methylcyclohexane-1-carboxylic acid], the IC50 was > 1.05e+07 pM.
Then `CC(C)CC(C)N(CC(=O)c1c(Cl)cncc1Cl)C(=O)c1cnn([C@H]2CC[C@](C)(C(=O)O)CC2)c1C(F)(F)F` (stereo partly drawn) [Example 312, trans-4-(4-((2-(3,5-dichloropyridin-4-yl)-2-oxoethyl)-(4-methylpentan-2-yl)carbamoyl)-5-(trifluoromethyl)pyrazol-1-yl)-1-methylcyclohexane-1-carboxylic acid], with 52500 pM; and `COCC(C)N(CC(=O)c1c(Cl)cncc1Cl)C(=O)c1cnn([C@H]2CC[C@](C)(C(=O)O)CC2)c1C(F)(F)F` (stereo partly drawn) [Example 313, trans-4-(4-((2-(3,5-dichloropyridin-4-yl)-2-oxoethyl)-(1-methoxypropan-2-yl)carbamoyl)-5-(trifluoromethyl)pyrazol-1-yl)-1-methylcyclohexane-1-carboxylic acid], with 1.55e+06 pM; and `CC(C)=CCN(CC(=O)c1c(Cl)cncc1Cl)C(=O)c1cnn([C@H]2CC[C@](C)(C(=O)O)CC2)c1C(F)(F)F` [Example 314, trans-4-(4-((2-(3,5-dichloropyridin-4-yl)-2-oxoethyl)-(3-methylbut-2-enyl)carbamoyl)-5-(trifluoromethyl)pyrazol-1-yl)-1-methylcyclohexane-1-carboxylic acid], with 41700 pM.
In the case of `COc1cncc(Cl)c1C(=O)CN(CC(C)(C)C)C(=O)c1cnn([C@H]2CC[C@](C)(C(=O)O)CC2)c1C(F)(F)F` [Example 315, trans-4-(4-((2-(3-chloro-5-methoxypyridin-4-yl)-2-oxoethyl)-(2,2-dimethylpropyl)carbamoyl)-5-(trifluoromethyl)pyrazol-1-yl)-1-methylcyclohexane-1-carboxylic acid], the IC50 was 55000 pM.
Then `CC1(CN(CC(=O)c2c(Cl)cncc2Cl)C(=O)c2cnn(C34CCC(C(=O)O)(CC3)CC4)c2C(F)(F)F)CC1` [Example 316, 4-(4-((2-(3,5-dichioropyridin-4-yl)-2-oxoethyl)-((1-methylcyclopropyl)methyl)carbamoyl)-5-(trifluoromethyl)pyrazol-1-yl)bicyclo[2.2.2]octane-1-carboxylic acid], with 9120 pM.
To `CC(C)(C)CN(CC(=O)c1c(Cl)cccc1Cl)C(=O)c1cnn(C23CCC(C(=O)O)(CC2)CC3)c1C(F)(F)F` [Example 317, 4-(4-((2-(2,6-dichlorophenyl)-2-oxoethyl)-(2,2-dimethylpropyl)carbamoyl)-5-(trifluoromethyl)pyrazol-1-yl)bicyclo[2.2.2]octane-1-carboxylic acid] belongs 10000 pM; to `CC(C)(C)OCCN(CC(=O)c1c(Cl)cncc1Cl)C(=O)c1cnn([C@H]2CC[C@](C)(C(=O)O)CC2)c1C(F)(F)F` [Example 318, trans-4-(4-((2-(3,5-dichloropyridin-4-yl)-2-oxoethyl)-(2-((2-methylpropan-2-yl)oxy)ethyl)carbamoyl)-5-(trifluoromethyl)pyrazol-1-yl)-1-methylcyclohexane-1-carboxylic acid], 20000 pM.
Then `CC(C)CC1(N(CC(=O)c2c(Cl)cncc2Cl)C(=O)c2cnn([C@H]3CC[C@](C)(C(=O)O)CC3)c2C(F)(F)F)CC1` [Example 319, trans-4-(4-((2-(3,5-dichloropyridin-4-yl)-2-oxoethyl)-(1-(2-methylpropyl)cyclopropyl)carbamoyl)-5-(trifluoromethyl)pyrazol-1-yl)-1-methylcyclohexane-1-carboxylic acid], with 141000 pM; and `CC1(C)[C@@H]2C[C@H](N(CC(=O)c3c(Cl)cccc3Cl)C(=O)c3cnn(C45CCC(C(=O)O)(CC4)CC5)c3C(F)(F)F)C[C@@H]21` [Example 320, 4-(4-((2-(2,6-dichlorophenyl)-2-oxoethyl)((1R,3r,5S)-6,6-dimethylbicyclo[3.1.0]hexan-3-yl)carbamoyl)-5-(trifluoromethyl)-1H-pyrazol-1-yl)bicyclo [2.2.2] octane-1-carboxylic acid], with 9770 pM; and `Cc1cc(Cl)c(C(=O)CN(C(=O)c2cnn(C34CCC(C(=O)O)(CC3)CC4)c2C(F)(F)F)[C@H]2C[C@@H]3[C@H](C2)C3(C)C)c(Cl)c1` [Example 321, 4-(4-((2-(2,6-dichloro-4-methylphenyl)-2-oxoethyl)((1R,3r,5S)-6,6-dimethylbicyclo[3.1.0]hexan-3-yl)carbamoyl)-5-(trifluoromethyl)-1H-pyrazol-1-yl)bicyclo[2.2.2]octane-1-carboxylic acid], with 11700 pM.
Regarding `CC1(C)C(CN(CC(=O)c2c(Cl)cncc2Cl)C(=O)c2cnn(C34CCC(C(=O)O)(CC3)CC4)c2C(F)(F)F)C1(C)C` [Example 322, 4-(4-((2-(3,5-dichloropyridin-4-yl)-2-oxoethyl)-((2,2,3,3-tetramethylcyclopropyl)methyl)carbamoyl)-5-(trifluoromethyl)pyrazol-1-yl)bicyclo[2.2.2]octane-1-carboxylic acid], the IC50 was 8130 pM.
To `CC1(C)CCC(N(CC(=O)c2c(Cl)cncc2Cl)C(=O)c2cnn([C@H]3CC[C@](C)(C(=O)O)CC3)c2C(F)(F)F)CO1` (stereo partly drawn) [Example 323, trans-4-(4-((2(3,5-dichloropyridin-4-yl)-2-oxoethyl)-(6,6-dimethyloxan-3-yl)carbamoyl)-5-(trifluorornethyl)pyrazol-1-yl)-1-methylcyclohexane-1-carboxylic acid] belongs 380000 pM; to `C[C@]1(C(=O)O)CC[C@H](n2ncc(C(=O)N(CC(=O)c3c(Cl)cncc3Cl)CC3(O)CCCC3)c2C(F)(F)F)CC1` [Example 324, trans-4-(4-((2-(3,5-dichloropyridin-4-yl)-2-oxoethyl)-((1-hydroxycyclopentyl)methyl)carbamoyl)-5-(trifluoromethyl)pyrazol-1-yl)-1-methylcyclohexane-1-carboxylic acid], 380000 pM; to `CC1(C)C(CN(CC(=O)c2c(Cl)cncc2Cl)C(=O)c2cnn([C@H]3CC[C@](C)(C(=O)O)CC3)c2C(F)(F)F)C1(C)C` [Example 325, trans-4-(4-((2-(3,5-dichloropyridin-4-yl)-2-oxoethyl)-((2,2,3,3-tetramethylcyclopropyl)methyl)carbamoyl)-5-(trifluoromethyl)pyrazol-1-yl)-1-methylcyclohexane-1-carboxylic acid], 10700 pM.
To `CC(C)(F)CN(CC(=O)c1c(Cl)cncc1Cl)C(=O)c1cnn([C@H]2CC[C@](C)(C(=O)O)CC2)c1C(F)(F)F` [Example 326, trans-4-(4-((2-(3,5-dichloropyridin-4-yl)-2-oxoethyl)-(2-fluoro-2-methylpropyl)carbamoyl)-5-(trifluoromethyl)pyrazol-1-yl)-1-methylcyclohexane-1-carboxylic acid] belongs 102000 pM.
To `CC(C)(F)CN(CC(=O)c1c(Cl)cncc1Cl)C(=O)c1cnn(C23CCC(C(=O)O)(CC2)CC3)c1C(F)(F)F` [Example 327, 4-(4-((2-(3,5-dichloropyridin-4-yl)-2-oxoethyl)-(2-fluoro-2-methylpropyl)carbamoyl)-5-(trifluoromethyl)pyrazol-1-yl)bicyclo[2.2.2]octane-1-carboxylic acid] belongs 97700 pM; to `CC(C)(C)CN(CCc1c[nH]c2ccccc12)C(=O)c1cnn([C@H]2CC[C@](C)(C(=O)O)CC2)c1C(F)(F)F` [Example 328, trans-4-(4-(2,2-dimethylpropyl-(2-(1H-indol-3-yl)ethyl)carbamoyl)-5-(trifluoromethyl)pyrazol-1-yl)-1-methylcyclohexane-1-carboxylic acid], 2.95e+06 pM.
